Measured values: patent US5688799A, “9-Hydroxy-pyrido[1,2-a]pyrimidin-4-one ether derivatives” (Janssen Pharmaceutica N.V., priority 1993, dated 1997)
Like-named read-outs stand apart in the source and are kept apart here.

Tests used:
[1] = test system: serotonin (peripheral symptoms, hyperaemia, elicited with serotonin or tryptamine); experiment: combined APO, TRY, NOR test in rats: tryptamine (TRY) hyperaemia; assay type: in vivo; conditions: Rattus norvegicus
[2] = test system: serotonin (central symptoms, convulsions, elicited with serotonin or tryptamine); experiment: combined APO, TRY, NOR test in rats: tryptamine (TRY) convulsions; assay type: in vivo; conditions: Rattus norvegicus, read-out: TRY convulsions ED50
[3] = test system: dopamine (symptoms elicited with the dopamine agonist apomorphine); experiment: combined apomorphine (APO), tryptamine (TRY) and norepinephrine (NOR) test in rats: apomorphine (APO); assay type: in vivo; conditions: Rattus norvegicus, read-out: APO ED50
[4] = test system: norepinephrine (death upon administration of the α2 -agonist norepinephrine); experiment: animal or person; assay type: in vivo, rats; conditions: Rattus norvegicus, read-out: NOR ED50
[5] = combined test in rats, tryptamine, central (convulsions)
[6] = combined test in rats, apomorphine

SMILES | ED50 [1] [mg/kg] | ED50 [2, 5] [mg/kg] | ED50 [3, 6] [mg/kg] | ED50 [2] [mg/kg] | ED50 [4] [mg/kg] | ED50 [3] [mg/kg]
COC1CCCn2c1nc(C)c(CCN1CCC(c3noc4cc(F)ccc34)CC1)c2=O (racemic) [Compound 7, (±)-3-[2-[4-(6-fluoro-1,2-benzisoxazol-3-yl)-1-piperidinyl]ethyl]-6,7,8,9-tetrahydro-9-methoxy-2-methyl-4H-pyrido[1,2-a]pyrimidin-4-one] | 0.00125 | 0.02 | 0.02 | – | – | –
COc1cccn2c(=O)c(CCN3CCC(c4noc5cc(F)ccc45)CC3)c(C)nc12 [Compound 1, 3-[2-[4-(6-fluoro-1,2-benzisoxazol-3-yl)-1-piperidinyl]ethyl]-9-methoxy-2-methyl-4H-pyrido[1,2-a]pyrimidin-4-one] | 0.0025 | 0.16 | 0.31 | – | – | –
CCOCOc1cccn2c(=O)c(CCN3CCC(c4noc5cc(F)ccc45)CC3)c(C)nc12 [Compound 2, 9-(ethoxymethoxy)-3-[2-[4-(6-fluoro-1,2-benzisoxazol-3-yl)-1-piperidinyl]ethyl]-2-methyl-4H-pyrido[1,2-a]pyrimidin-4-one] | 0.01 | – | – | 1.25 | 1.25 | 1.25
CCCCCCCCCCCCOc1cccn2c(=O)c(CCN3CCC(c4noc5cc(F)ccc45)CC3)c(C)nc12 [Compound 3] | 1.25 | > 10 | > 10 | – | – | –
C=CCOc1cccn2c(=O)c(CCN3CCC(c4noc5cc(F)ccc45)CC3)c(C)nc12 [Compound 4, 3-[2-[4-(6-fluoro-1,2-benzisoxazol-3yl)-1-piperidinyl]ethyl]-2-methyl-9-(2-propenyloxy)-4H-pyrido[1,2-a]pyrimidin-4-one] | 0.005 | 0.31 | 0.31 | – | 0.16 | –
Cc1nc2c(OCCCC#N)cccn2c(=O)c1CCN1CCC(c2noc3cc(F)ccc23)CC1 [Compound 5] | 0.005 | – | – | 1.25 | 1.25 | 1.25
C#CCOc1cccn2c(=O)c(CCN3CCC(c4noc5cc(F)ccc45)CC3)c(C)nc12 [Compound 6, 3-[2-[4-(6-fluoro-1,2-benzisoxazol-3-yl)-1-piperidinyl]ethyl]-2-methyl-9-(2-propynyloxy)-4H-pyrido[1,2-a]pyrimidin-4-one] | – | < 0.63 | < 0.63 | – | < 0.63 | –
CCOCOC1CCCn2c1nc(C)c(CCN1CCC(c3noc4cc(F)ccc34)CC1)c2=O (stereo not drawn) [Compound 8] | 0.00125 | 0.16 | 0.31 | – | – | –
CCCCCCCCCCCCOC1CCCn2c1nc(C)c(CCN1CCC(c3noc4cc(F)ccc34)CC1)c2=O (stereo not drawn) [Compound 9] | 0.01 | 1.25 | 10 | – | 2.5 | –
CCCOC1CCCn2c1nc(C)c(CCN1CCC(c3noc4cc(F)ccc34)CC1)c2=O (stereo not drawn) [Compound 10, 3-[2-[4-(6-fluoro-1,2-benzisoxazol-3-yl)-1-piperidinyl]ethyl]-6,7,8,9-tetrahydro-2-methyl-9-propoxy-4H-pyrido[1,2-a]pyrimidin-4-one] | 0.002 | 0.08 | 0.08 | – | 0.16 | –
COCCOC1CCCn2c1nc(C)c(CCN1CCC(c3noc4cc(F)ccc34)CC1)c2=O (stereo not drawn) [Compound 11] | 0.00125 | 0.63 | 0.31 | – | 1.25 | –
